Literature values, collected in patent US8729108B2, “Waterborne topical compositions for the delivery of active ingredients such as azelaic acid” (priority 2008, dated 2014).

In the case of O=C(O)CCCCCCCC(=O)O [Azelaic acid, nonanedioic acid], the “solubility in cosmetic oils” value (cosmetic oils) is given as “little or no solubility” and the “maximum azelaic acid content of an aqueous solution” value (water) is given as “about 0.24 % by weight (w/w)”.
